Our source for the IC50 and DC50 values is patent publication US20250115581A1, “SUBSTITUTED PIPERIDINES AS CK1A DEGRADERS” (Monte Rosa Therapeutics, Inc., priority 2022, published 2025).

One test has as its target CRBN/DDB1 (Homo sapiens, UniProt Q96SW2). Briefly: HTRF binding assay (displacement of Cy5-thalidomide probe from CRBN/DDB1). The conditions noted are these: CRBN/DDB1 2.5 nM, Cy5-Thalidomide 100 nM, 30 min; geometric mean; read-out: HTRF_Thali_Disp_DR_geo_IC50. An excerpt:
Binding of test compounds to CRBN/DDB1 was monitored in an HTRF assay using 1-[5-({2-[2-(2-{[2-(2,6-dioxopiperidin-3-yl)-1,3-dioxo-2,3-dihydro-1H-isoindol-4-yl]oxy}acetamido)ethoxy]ethyl}carbamoyl)pentyl]-3,3-dimethyl-2-[(1E,3E)-5-[(2E)-1,3,3-trimethyl-5-sulfo-2,3-dihydro-1H-indol-2-ylidene]penta-1,3-dien-1-yl]-3H-indol-1-ium-5-sulfonate as a fluorescent probe. In this assay, compounds displace the fluorescently labeled thalidomide-based probe bound to CRBN and fluorescence is monitored with increasing compound concentration. Assays were conducted in Greiner white 384 well HiBase plates (Cat. No 784075-25) in 10 μL total volume. A one pot detection solution of CRBN/DDB1 (2.5 nM), anti-His Terbium Cryptate Gold (1×, PerkinElmer Cat. #: 61HI2TLB), and Cy5-Thalidomide (100 nM, Tenova Cat.: T52461) was prepared in 20 mM HEPES, 20 mM NaCl, 0.2 mM TCEP, 0.2 mM EDTA, and 0.005% Tween20 was dispensed to each assay plate. Test compounds were stored in dry, ambient temperatures at 10 mM. A 10-point, 1:3 dilution series was prepared from 10 mM stock concentrations in Echo-compatible LDV plates. 10 nL of each compound dilution series was dispensed into assays wells using an Echo 650 (Labcyte inc. USA). 10 nL of 10 mM lenalidomide (Selleckchem Cat no. S1029) was transferred into the active-control wells for the assay and 10 nL of DMSO was transferred into the negative control wells. The assay was then allowed to incubate for 30 min at ambient temperature after transferring the test compounds. Plate measurements were taken on a Pherastar FSX (BMG Labtech, Germany) using the HTRF Red filter (Ex. 337 nm, em1: 620 nm, em2: 665 nm) (Flashes: 50, Integration time: 60-400 μs, Z-height: 10 mm, Ratio-multiplier: 10,000). Analysis, HTRF ratio and IC50 values were derived using KNIME analytics (KNIME Zurich) transformation and fitting within Collaborative Drug Discovery (Collaborative Drug Discovery USA) using a 4-parameter logistic fit. HTRF ratio calculation was performed using the following formula: […]
where em665 nm represents the measured emission at 665 nm upon excitation at 337 nm and em620 nm the measured emission at 620 nm upon excitation at 337 nm. The 4 parameter logistic fitting model was performed using the following formula: […]
where Y represents the HTRF ratio response (as defined previously), X the compound concentration in μM, Ymin the minimum response plateau, Ymax the maximum response plateau, IC50 the concentration of […] that gives a response half way between Ymin and Ymax and HillSlope the steepness of the family of curves. No fitting model constraints was applied on Ymin, or Ymax whilst IC50>0 and −0.5>HillSlope>−3 Cheng-Prusoff transformation
Ki values were derived from the geometric mean of the IC50 values using the Cheng-Prusoff transformation:
where [L] represents the concentration of fluorescent probe in […], Kd the affinity (binding constant) of the fluorescent probe in units of μM and IC50 the concentration of agonist that gives a response halfway between Ymin and Ymax (as described in 1.2.1)
Analysis and IC50 values were derived using KNIME analytics (KNIME, Zurich) transformation and fitting within Collaborative Drug Discovery (Collaborative Drug Discovery, USA) as described in 1.2.1. Ki values were derived from the geometric mean of the IC50 values using the Cheng-Prusoff transformation as described in 2.2.2. Data was visualized in GraphPad Prism 8.1.2 (GraphPad, USA) and reported as mean and standard deviation. Microsoft Office Excel 2012 (Redmond, WA) was used for calculation of mean and standard deviation.
IC50 data are reported in Table 3 for compounds in Table 1. In Table 3 below, According to the code, A represents a IC50 value of ≤0.1 μM, B represents a IC50 value >0.1 μM and ≤1 μM, C represents an IC50 value >1 μM.
On the technique in general: TR-FRET usually uses a lanthanide donor and a delayed reading to cut background.

For the next test, the target named is T1, CK1α (Homo sapiens, UniProt P48729+Q96SW2).
T1 construct: HEK293 clonal lines with CRISPR KI HiBiT tag on CSNK1A1; host or cells: HEK293 clonal line, CRISPR knock-in HiBiT at the CSNK1A1 locus, stably expressing LgBiT
Briefly: CK1α NanoBit Assay (HiBiT-tagged CSNK1A1 in HEK293 cells, luminescence). Format: cell-based. The conditions noted are these: 24 h. The procedure: HEK293 clonal lines with CRISPR KI HiBiT tag on CSNK1A1 and stably expressing LgBiT protein were obtained from Promega (Madison, WI). Cells were plated at 5000 cells per well using Multiflo (BioTek) in 384-well white solid bottom plates (Corning, 3570BC) in 25 μl volume in DMEM media (DMEM, high glucose, HEPES, no phenol red (ThermoFisher Scientific, 21063029)) containing 10% FBS (Corning, 35-075-CV), 1% Penicillin/Streptomycin ((ThermoFisher Scientific, 15140-122), and 0.2% Endurazine (Nano-Glo Endurazine Live Cell Substrate (Promega, N2571)). Cells were incubated for 16 hours at 37° C., 5% CO2. Depending on experiment 25 or 75 nL of a compound at 10 mM were added into the plate using an Echo® 650 liquid handler (Labcyte) to achieve final concentration of 10 or 30 μM in wells. Cells were incubated at 37° C., 5% CO2 for 24 hours and then signal was read on a Pherastar FSX using “LUM plus” optic module.
Data analysis was performed in Scinamic (Scinamic, Cambridge, MA). Luminescence response (R) was calculated by the formula: response=100*(S−N)/(P−N) where S is the signal of the well, N and P the mean negative and positive control values respectively of the same plate. The luminescence response was then fitted in Scinamic using a 3-parameter agonist logistic fit (hillslope=1, EC50>0, top/bottom unconstrained).
DC50 data are reported in Table 2 for compounds in Table 1. In Table 2 below, According to the code, A represents a DC50 value of ≤0.1 μM, B represents a DC50 value >0.1 μM and ≤1 μM, C represents an DC50 value >1 μM.
In general terms: The HiBiT peptide binds its large partner to form an active luciferase.

Molecules are shown by their SMILES.

T1 sequence (P48729 whole entry): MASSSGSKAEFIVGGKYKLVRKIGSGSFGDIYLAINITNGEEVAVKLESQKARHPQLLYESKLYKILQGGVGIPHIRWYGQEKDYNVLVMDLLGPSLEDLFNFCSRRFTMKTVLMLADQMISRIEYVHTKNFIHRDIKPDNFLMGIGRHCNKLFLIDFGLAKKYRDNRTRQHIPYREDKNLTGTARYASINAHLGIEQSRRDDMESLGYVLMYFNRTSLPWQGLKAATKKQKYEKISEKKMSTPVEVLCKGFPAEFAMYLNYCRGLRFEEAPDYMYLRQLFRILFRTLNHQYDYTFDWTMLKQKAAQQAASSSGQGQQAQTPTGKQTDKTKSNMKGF
T1 sequence (Q96SW2 whole entry): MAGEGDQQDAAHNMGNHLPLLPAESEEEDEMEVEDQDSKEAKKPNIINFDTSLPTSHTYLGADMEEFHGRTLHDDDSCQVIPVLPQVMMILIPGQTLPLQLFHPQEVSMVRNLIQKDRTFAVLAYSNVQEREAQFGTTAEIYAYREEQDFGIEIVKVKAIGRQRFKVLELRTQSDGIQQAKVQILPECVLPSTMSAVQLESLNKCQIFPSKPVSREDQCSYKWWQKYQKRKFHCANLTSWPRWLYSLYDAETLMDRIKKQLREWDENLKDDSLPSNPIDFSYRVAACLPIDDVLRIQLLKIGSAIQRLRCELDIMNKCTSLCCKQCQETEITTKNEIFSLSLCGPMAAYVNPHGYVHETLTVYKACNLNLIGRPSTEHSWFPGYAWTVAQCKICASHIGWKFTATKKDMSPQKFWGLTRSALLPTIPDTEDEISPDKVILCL
T1 sequence (Q16531 whole entry partner): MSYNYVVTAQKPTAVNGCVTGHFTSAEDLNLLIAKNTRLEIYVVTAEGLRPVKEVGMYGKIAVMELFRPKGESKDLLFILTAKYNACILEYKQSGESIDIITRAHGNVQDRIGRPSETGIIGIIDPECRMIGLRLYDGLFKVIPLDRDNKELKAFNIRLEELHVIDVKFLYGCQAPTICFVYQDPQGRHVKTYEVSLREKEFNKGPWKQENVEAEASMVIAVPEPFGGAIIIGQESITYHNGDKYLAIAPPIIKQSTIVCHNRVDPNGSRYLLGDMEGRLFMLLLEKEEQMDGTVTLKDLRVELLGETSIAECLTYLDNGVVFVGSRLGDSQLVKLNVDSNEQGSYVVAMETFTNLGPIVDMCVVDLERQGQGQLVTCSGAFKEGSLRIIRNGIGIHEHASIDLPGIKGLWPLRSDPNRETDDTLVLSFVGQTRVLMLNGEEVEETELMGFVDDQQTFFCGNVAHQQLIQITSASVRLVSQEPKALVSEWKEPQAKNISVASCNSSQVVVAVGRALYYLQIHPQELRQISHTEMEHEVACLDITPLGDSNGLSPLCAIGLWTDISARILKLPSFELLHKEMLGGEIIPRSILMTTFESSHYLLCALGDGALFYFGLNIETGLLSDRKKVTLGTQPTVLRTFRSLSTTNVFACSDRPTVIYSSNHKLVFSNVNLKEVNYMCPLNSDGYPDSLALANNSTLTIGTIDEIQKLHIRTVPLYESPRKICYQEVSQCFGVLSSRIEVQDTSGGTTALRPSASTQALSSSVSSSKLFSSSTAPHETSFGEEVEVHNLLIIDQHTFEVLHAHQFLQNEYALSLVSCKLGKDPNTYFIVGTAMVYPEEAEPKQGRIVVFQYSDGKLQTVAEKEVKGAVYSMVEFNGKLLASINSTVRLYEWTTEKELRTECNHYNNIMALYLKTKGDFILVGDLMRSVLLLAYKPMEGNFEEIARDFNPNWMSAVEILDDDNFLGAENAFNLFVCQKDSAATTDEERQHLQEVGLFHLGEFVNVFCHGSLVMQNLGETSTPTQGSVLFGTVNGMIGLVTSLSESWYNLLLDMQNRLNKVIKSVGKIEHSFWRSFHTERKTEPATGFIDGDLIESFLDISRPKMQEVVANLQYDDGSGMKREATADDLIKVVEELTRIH
Sequence of CRBN/DDB1 (Q96SW2 whole entry): as the sequence (Q96SW2 whole entry) above
Sequence of CRBN/DDB1 (Q16531 whole entry partner): as the sequence (Q16531 whole entry partner) above

On to `C[C@H]1CN(c2ccc3c(c2)CN(C2CCC(=O)NC2=O)C3=O)C(=O)N1c1ccccc1` (stereo partly drawn) [Compound 109, 3-(5-((S)-4-methyl-2-oxo-3-phenylimidazolidin-1-yl)-1-oxoisoindolin-2-yl) piperidine-2,6-dione], for which the IC50 on CRBN/DDB1 was in the range of 100 to 1000 nM. In addition, the DC50 at CK1α is at most 0.1 µM.
On the same counts, the results for `CC(c1ccccc1)N1CCN(c2ccc3c(c2)CN(C2CCC(=O)NC2=O)C3=O)C1=O` (stereo not drawn) [Compound 154, 3-(1-oxo-5-(2-oxo-3-(1-phenylethyl)imidazolidin-1-yl)isoindolin-2-yl)piperidine-2,6-dione] are 100 to 1000 nM and 0.1 to 1 µM.
On the same counts, the results for `O=C1CCC(N2Cc3cc(N4CCN(C5CC6(CCC6)C5)C4=O)ccc3C2=O)C(=O)N1` (stereo not drawn) [Compound 153, 3-(1-oxo-5-(2-oxo-3-(spiro[3.3]heptan-2-yl)imidazolidin-1-yl)isoindolin-2-yl)piperidine-2,6-dione] are 100 to 1000 nM and 0.1 to 1 µM.
On the same counts, the results for `CN1CC(c2ccc(N3CCN(c4ccc5c(c4)CN(C4CCC(=O)NC4=O)C5=O)C3=O)cc2)C1` (stereo not drawn) [Compound 176, 3-(5-(3-(4-(1-methylazetidin-3-yl)phenyl)-2-oxoimidazolidin-1-yl)-1-oxoisoindolin-2-yl)piperidine-2,6-dione] are at most 100 nM and over 1 µM.
Take `O=C1CCC(N2Cc3cc(N4CCN(c5ccc(C(F)(F)F)cc5)C4=O)ccc3C2=O)C(=O)N1` (stereo not drawn) [Compound 112, 3-(1-oxo-5-(2-oxo-3-(4-(trifluoromethyl)phenyl)imidazolidin-1-yl)isoindolin-2-yl)piperidine-2,6-dione]: on CRBN/DDB1, the IC50 is 100 to 1000 nM. On CK1α, the DC50 was at most 0.1 µM.
The like results for `COC[C@@H]1CN(c2ccc3c(c2)CN(C2CCC(=O)NC2=O)C3=O)C(=O)N1c1ccc(C)cc1` (stereo partly drawn) [Compound 143, 3-(5-((S)-4-(methoxymethyl)-2-oxo-3-(p-tolyl)imidazolidin-1-yl)-1-oxoisoindolin-2-yl)piperidine-2,6-dione] were, in that order, 100 to 1000 nM and at most 0.1 µM.
The like results for `C[C@@H]1CN(c2ccc3c(c2)CN(C2CCC(=O)NC2=O)C3=O)C(=O)N1C1CCCC1` (stereo partly drawn) [Compound 138, 3-(5-((R)-3-cyclopentyl-4-methyl-2-oxoimidazolidin-1-yl)-1-oxoisoindolin-2-yl)piperidine-2,6-dione] were, in that order, 100 to 1000 nM and at most 0.1 µM.
The like results for `O=C1CCC(N2Cc3cc(N4CCN(c5ccc(Cl)cc5)C4=O)ccc3C2=O)C(=O)N1` (stereo not drawn) [Compound 114] were, in that order, 100 to 1000 nM and at most 0.1 µM.
Take `Cc1ccc(N2C(=O)N(c3ccc4c(c3)CN(C3CCC(=O)NC3=O)C4=O)C[C@H]2C(F)F)cc1` (stereo partly drawn) [Compound 173, 3-(5-((S)-4-(difluoromethyl)-2-oxo-3-(p-tolyl)imidazolidin-1-yl)-1-oxoisoindolin-2-yl)piperidine-2,6-dione]: the IC50 on CRBN/DDB1 lay in the range of 100 to 1000 nM. On CK1α, this compound yielded a DC50 of over 1 µM.
Regarding `O=C1CCC(N2Cc3cc(N4CCN(c5cccc6c5CCO6)C4=O)ccc3C2=O)C(=O)N1` (stereo not drawn) [Compound 140, 3-(5-(3-(2,3-dihydrobenzofuran-4-yl)-2-oxoimidazolidin-1-yl)-1-oxoisoindolin-2-yl)piperidine-2,6-dione], on CRBN/DDB1, the IC50 was in the range of 100 to 1000 nM. On CK1α, this compound showed a DC50 of at most 0.1 µM.
For `Cc1ccc(N2C(=O)N(c3ccc4c(c3)CN(C3CCC(=O)NC3=O)C4=O)C[C@H]2C)nc1` (stereo partly drawn) [Compound 156, 3-(5-((R)-4-methyl-3-(5-methylpyridin-2-yl)-2-oxoimidazolidin-1-yl)-1-oxoisoindolin-2-yl)piperidine-2,6-dione], on CRBN/DDB1, the IC50 lay in the range of 100 to 1000 nM. The same compound gave a DC50 on CK1α of 0.1 to 1 µM.
On the same counts, the results for `O=C1CCC(N2Cc3cc(N4CCN(C5CC6(COC6)C5)C4=O)ccc3C2=O)C(=O)N1` (stereo not drawn) [Compound 171, 3-(1-oxo-5-(2-oxo-3-(2-oxaspiro[3.3]heptan-6-yl)imidazolidin-1-yl)isoindolin-2-yl)piperidine-2,6-dione] are 100 to 1000 nM and 0.1 to 1 µM.
The like results for `O=C1CCC(N2Cc3cc(N4CCN(C5COC5)C4=O)ccc3C2=O)C(=O)N1` (stereo not drawn) [Compound 178, 3-(5-(3-(oxetan-3-yl)-2-oxoimidazolidin-1-yl)-1-oxoisoindolin-2-yl)piperidine-2,6-dione] were, in that order, 100 to 1000 nM and over 1 µM.
Regarding `O=C1CCC(N2Cc3cc(N4CCN(C5CC5)C4=O)ccc3C2=O)C(=O)N1` (stereo not drawn) [Compound 164, 3-[5-(3-cyclopropyl-2-oxo-imidazolidin-1-yl)-1-oxo-isoindolin-2-yl]piperidine-2,6-dione], the IC50 at CRBN/DDB1 lay within 100 to 1000 nM. The compound further returned a DC50 at CK1α of 0.1 to 1 µM.
On the same counts, the results for `Cc1ccc(N2C(=O)N(c3ccc4c(c3)CN(C3CCC(=O)NC3=O)C4=O)C[C@@H]2C)cc1` (stereo partly drawn) [Compound 145, 3-(5-((S)-4-methyl-2-oxo-3-(p-tolyl)imidazolidin-1-yl)-1-oxoisoindolin-2-yl)piperidine-2,6-dione] are 100 to 1000 nM and at most 0.1 µM.
The like results for `Cc1ccc(N2C(=O)N(c3ccc4c(c3)CN(C3CCC(=O)NC3=O)C4=O)C[C@@H]2C)cn1` (stereo partly drawn) [Compound 155, 3-(5-((S)-4-methyl-3-(6-methylpyridin-3-yl)-2-oxoimidazolidin-1-yl)-1-oxoisoindolin-2-yl)piperidine-2,6-dione] were, in that order, 100 to 1000 nM and 0.1 to 1 µM.
The like results for `O=C1CCC(N2Cc3cc(N4CCN(c5cccc(Cl)c5)C4=O)ccc3C2=O)C(=O)N1` (stereo not drawn) [Compound 118, 3-(5-(3-(3-chlorophenyl)-2-oxoimidazolidin-1-yl)-1-oxoisoindolin-2-yl)piperidine-2,6-dione] were, in that order, 100 to 1000 nM and at most 0.1 µM.
Take `N#Cc1ccc(N2CCN(c3ccc4c(c3)CN(C3CCC(=O)NC3=O)C4=O)C2=O)cc1` (stereo not drawn) [Compound 115]: the IC50 on CRBN/DDB1 fell in the range of 100 to 1000 nM. For the same compound, the DC50 at CK1α is 0.1 to 1 µM.
